These are literature values, as cited in publication PMC4686915, “An engineered scorpion toxin analogue with improved Kv1.3 selectivity displays reduced conformational flexibility” (Scientific Reports, 2015).

Where two headings read alike, the source gives them in different places. A value given as a limit tells only on which side of the number the result lay.

Data set [1] addresses T1, Kv1.3 (Homo sapiens, UniProt P22001). On the set-up: endogenous in cells. To be noted: for selectivity class: Figure 1, based on ratio of Kd values for Kv1.2 and Kv1.3, ref not given; for block of Kv1.3, in words: toxins with tyrosine at the aromatic dyad position, ref 10 (ChTx), 13 (Css20), 32 (Tst26), 33 (noxiustoxin), 34 (hongotoxin-1), 30 (Pi1). The text has this: (§1) Anuroctoxin (AnTx, αKTx 6.12) is a peptide toxin of 35 amino acids with a molecular weight of 4082.8, stabilized by four disulphide bridges, which was isolated by our workgroup from the venom of the scorpion Anuroctonus phaiodactylus. […] Our aim was to improve the selectivity of the wild-type toxin for Kv1.3 by site-directed changes in the primary sequence of the peptide. || Figure 1 Sequence comparison of Kv1.2- and Kv1.3-selective toxins. The aligned primary sequences are shown for toxins for which the affinities for both Kv1.2 and Kv1.3 channels were determined. Toxins were classified as Kv1.2-selective, non-selective or Kv1.3-selective based on the ratio of the determined Kd values for the two channels. TEXT PRINTED IN THE PICTURE: maurotoxin: KdKv1.2/KdKv1.3: 0.004; KdKv1.2 (nM): 0.8; KdKv1.3 (nM): 180; selectivity: Kv1.2 | CoTX1: KdKv1.2/KdKv1.3: 0.005; KdKv1.2 (nM): 27; K ... || First we aimed at reproducing the effects of natural anuroctoxin with the wild-type toxin produced by solid-state chemical synthesis, denoted as sAnTx. The blocking effect of sAnTx was first tested on Kv1.3 channels expressed by activated human lymphocytes. Channels were activated by depolarizing pulses to +50 mV to maximize the open probability and pulse duration was limited to 15 ms to minimize inactivation. The use of such short pulses prevented cumulative inactivation and allowed us to record the current amplitude every 15 s giving better temporal resolution of the kinetics of block develo ... || (+ 3 further places)

The next data set has as its target Kv1.2.
Excerpt: as §1, with “(+ 1” for “(+ 3”

Another data set deals with Kv1.2 (Homo sapiens) (UniProt P16389).
The target of data set [2] is T1, Kv1.3.
The next data set relates to hKv1.2 V381H. The text has this: (§2) We first targeted the essential dyad to improve selectivity. […] While the necessity of the dyad lysine was shown for other Kv channels as well[10], the requirement for the aromatic half of the dyad, especially the tyrosine, is not as straightforward for blocking Kv1.3.
The next data set has as its system hKv1.3 H399T.
Excerpt: as §2

[3] abbreviates: Figure 1 sequence comparison, literature toxins, ref not given.
Setting [4] is: Figure 1 sequence comparison, literature toxins, ref not given, read-out: KdKv1.3.
[5] abbreviates: Figure 1 sequence comparison, literature toxins, ref not given, read-out: KdKv1.2.

T1 sequence (P22001 whole entry): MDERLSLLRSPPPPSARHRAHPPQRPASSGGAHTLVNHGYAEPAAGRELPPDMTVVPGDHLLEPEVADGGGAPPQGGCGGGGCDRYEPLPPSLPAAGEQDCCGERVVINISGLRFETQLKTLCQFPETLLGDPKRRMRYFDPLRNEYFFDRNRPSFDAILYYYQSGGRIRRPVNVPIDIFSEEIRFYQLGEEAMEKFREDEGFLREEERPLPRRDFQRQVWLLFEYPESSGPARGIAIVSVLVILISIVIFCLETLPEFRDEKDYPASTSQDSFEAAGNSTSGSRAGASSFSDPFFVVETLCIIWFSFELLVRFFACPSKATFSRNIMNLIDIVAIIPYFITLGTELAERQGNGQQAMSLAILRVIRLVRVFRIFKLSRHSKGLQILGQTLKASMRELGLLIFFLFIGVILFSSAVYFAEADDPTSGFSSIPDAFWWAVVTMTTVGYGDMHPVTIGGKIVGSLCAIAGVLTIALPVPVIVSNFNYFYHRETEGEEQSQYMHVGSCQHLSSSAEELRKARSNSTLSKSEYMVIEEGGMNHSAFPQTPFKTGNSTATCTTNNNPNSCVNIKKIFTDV
Sequence of anuroctoxin (P0C166 whole entry): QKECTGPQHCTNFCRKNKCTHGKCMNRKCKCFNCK
Sequence of Kv1.2 (Homo sapiens) (P16389 whole entry): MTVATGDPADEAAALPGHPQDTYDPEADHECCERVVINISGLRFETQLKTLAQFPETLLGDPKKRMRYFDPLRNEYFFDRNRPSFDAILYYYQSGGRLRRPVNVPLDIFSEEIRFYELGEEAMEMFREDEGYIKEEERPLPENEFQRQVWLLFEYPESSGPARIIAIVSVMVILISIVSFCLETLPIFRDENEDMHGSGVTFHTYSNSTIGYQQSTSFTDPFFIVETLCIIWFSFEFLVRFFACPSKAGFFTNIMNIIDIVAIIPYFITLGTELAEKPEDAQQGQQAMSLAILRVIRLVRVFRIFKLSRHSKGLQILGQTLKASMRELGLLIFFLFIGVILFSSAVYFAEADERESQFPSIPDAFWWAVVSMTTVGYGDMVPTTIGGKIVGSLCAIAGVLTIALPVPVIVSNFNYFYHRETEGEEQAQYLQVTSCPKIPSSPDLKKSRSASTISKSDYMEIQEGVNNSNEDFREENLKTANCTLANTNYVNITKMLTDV

charybdotoxin [ChTx]: the selectivity class entry with Kv1.3 [1] is “non-selective (non-selective)”. Moreover, the KdKv1.2/KdKv1.3 with Kv1.3 [1] (setting [3]) is 5.4. Besides, the values for the Kd in the data set with Kv1.3 [1] (setting [4]) and at Kv1.2 (setting [5]) were 2.6 nM and 14 nM, respectively. Further, the “block of Kv1.3, in words” value with Kv1.3 [1] is “nanomolar range”.
anuroctoxin (from UniProt P0C166): the Kd in the data set with Kv1.2 (Homo sapiens) is 6.14 nM; with Kv1.3 [2], 0.73 nM.
For the substance kaliotoxin [KTX], the selectivity class result in the data set with Kv1.3 [1] was “Kv1.3 (Kv1.3-selective)”. In addition, the KdKv1.2/KdKv1.3 with Kv1.3 [1] (setting [3]) is reported as greater than 1538. Besides, the figures for the Kd with Kv1.3 [1] (setting [4]) and at Kv1.2 (setting [5]) were 0.65 nM and greater than 1000 nM, respectively.
As for anuroctoxin [AnTx], the selectivity class entry at Kv1.3 [1] is reported as “non-selective (non-selective)”. Also, the KdKv1.2/KdKv1.3 at Kv1.3 [1] (setting [3]) is recorded as 9. Further, the Kd on Kv1.3 [1] (listed as natural toxin, read-out: Kd Kv1.3 of natural anuroctoxin) is 0.7 nM; on Kv1.2 (setting [5]) it was 6 nM; at Kv1.2 (listed as natural toxin, read-out: Kd Kv1.2 of natural anuroctoxin), 6.1 nM. Also, the “selectivity of the natural toxin for Kv1.3 over Kv1.2” value at Kv1.3 [1] (natural toxin) is on record as 9 fold.
As to “Noxiustoxin (TIINVKCTSPKQCSKPCKELYGSSAGAKCMNGKCKCYNN; UniProt P08815 1-39, looked up) [scorpion toxin]”, in the data set with Kv1.3 [1], the selectivity class entry is reported as “non-selective (non-selective)” and the “block of Kv1.3, in words” value was “nanomolar range”. The KdKv1.2/KdKv1.3 with Kv1.3 [1] (setting [3]) is 2. In the data set with Kv1.3 [1] (setting [4]), the Kd is 1 nM. For the same substance, the Kd at Kv1.2 (setting [5]) is 2 nM.
As to maurotoxin, the selectivity class entry at Kv1.3 [1] was “Kv1.2 (Kv1.2-selective)”. Also, the KdKv1.2/KdKv1.3 on Kv1.3 [1] (setting [3]) is listed as 0.004. The values for the Kd on Kv1.3 [1] (setting [4]) and on Kv1.2 (setting [5]) were 180 nM and 0.8 nM, respectively. In the data set with hKv1.2 V381H, the “MTX binding affinity of hKv1.2 with V381H mutation” value is “drastically reduced MTX binding affinity”. Moreover, in the data set with hKv1.3 H399T, the “MTX sensitivity of Kv1.3 with H399T replacement” value is recorded as “made Kv1.3 sensitive to MTX”.
Regarding Hongotoxin-1, the selectivity class entry at Kv1.3 [1] is recorded as “non-selective (non-selective)”. In addition, at Kv1.3 [1] (setting [3]), the KdKv1.2/KdKv1.3 is 1.9. The Kd on Kv1.3 [1] (setting [4]) is 0.09 nM; on Kv1.2 (setting [5]) it was 0.17 nM. Also, the “block of Kv1.3, in words” value at Kv1.3 [1] is listed as “nanomolar range”.
